Ends that are not written are not given here.
Tests used:
human HCC = assay: Immunofluorescence on human liver biopsies ex vivo
Source text: Specific peptide binding to human HCC was confirmed on patient biopsies (n=41) ex vivo from University of Michigan Hospital. […] Antibody staining of the same tissue confirmed minimal GPC3 expression, FIG. 15B. Binding by ALL*-Cy5.5 peptide and AF488-labeled anti-GPC3 antibody co-localized on normal liver specimen with Pearson's correlation coefficient of p=0.62, FIG. 15C. Co-stained regions were also imaged at 40×, FIG. 15D and 100× (dashed box in Panel D) magnifications, FIG. 15E.
Quantitative comparison of ALL*-Cy5.5 binding to human HCC with normal liver, adenoma and cirrhosis tissue was summarized in FIG. 15U.

Hep3B human HCC cells = assay: Confocal microscopy of peptide binding to Hep3B cells; assay type: cell-based
Protocol: (§1) FIGS. 6-2A-Q show validation of specific peptide binding to cells in vitro. […] The Hep3B versus SK-Hep1 difference was also larger for antibody than QLE (P=2.3×10^−8, 6.0-fold larger). Intensity was measured with 6 replicates per condition and fitted to an ANOVA model with terms for 9 means to log-transformed data. […] We further validated specific peptide binding to GPC3 using siRNA knockdown. […] Q) Quantified fluorescence intensities. The siCL vs siGPC3 difference was 7.4 times bigger for ALL than the same difference for QLE (P=7.8×10^−5), and the difference for antibody was 8.9 times bigger than for QLE (P=2.5×10^−5), by ANOVA on log-transformed data. Results are an average of 6 images collected independently.
(§2) On confocal microscopy, it was shown that ALL*-Cy5.5 binds to the surface (arrows) of cells with different levels of GPC3 expression. […] GPC3 is highly overexpressed in Hep3B cell cytosol and membrane while moderately expressed in HepG2 cells. No GPC3 expression is observed in SK-Hep1 cells. Tubulin serves as loading control for either cytosol or membrane fractions loaded.

SK-Hep1 cells = assay: Confocal microscopy of peptide binding to SK-Hep1 cells; assay type: cell-based, human
Protocol: as §1, §2

[1] = system: HCC xenograft tumor overexpressing GPC3; assay: In vivo handheld dual axes confocal endomicroscope imaging; parameters: species or system mice
Protocol: GPC3 expression from human HCC xenograft tumors was evaluated in real time by collecting optical sections in vivo using a handheld 5.5 mm diameter dual axes confocal endomicroscope. A solid-state diode laser (300 mW, CNI Laser Inc.) provided illumination at λex=671 nm. A parabolic mirror focused the illumination and collection beams to overlap below the tissue surface with lateral and axial resolution of 2 and 5 μm, respectively. A compact, 3D monolithic scanner located in the distal tip provided large vertical displacements and wide angular deflections to produce images in the vertical (XZ) and horizontal (XY) planes with a FOV of 1000×430 and 1000×1000 μm^2, respectively. NIR fluorescence is collected and passes through a band pass filter (FF01-716/40-25, Semrock) that transmits from 696-736 nm with >93% efficiency for detection with a photomultiplier tube (PMT, H7422PA-40, Hamamatsu) detector. The peptides were injected via the tail vain, and dissected away the skin overlying the tumor to gain access. The distal tip of the endomicroscope was placed in contact with the tumor using a drop of saline to couple the light. Laser power <2 mW on the tissue was used to avoid photobleaching. NIR fluorescence images were collected at 5 frames per sec. 3D volumetric images were reconstructed from a series of images collected in the vertical plane using Amira software (ver 5.4.3, FEI Corporation).
The probe was small enough to be comfortably held in the surgeon's hand during surgery, FIG. 12A, for in vivo imaging of biomarker expression. Its diameter was 5.5 mm and delivered 671 nm near-infrared laser at 2 mW. Mouse carrying HCC xenograft tumor overexpressing GPC3 was first injected with 250 μL 300 μM ALL*-Cy5.5 peptide intravenously and after 2 hours the probe was held in contact with exposed subcutaneous tumor to acquire in vivo peptide binding images, FIG. 12B. Images were collected in either the vertical or horizontal plane with 430 μm depth or 1000×1000 μm^2 area, respectively, at 5 frames per second. With measured lateral resolution of 2.49 μm and axial resolution of 4.98 μm, each peptide stained cell can be clearly seen (arrows). […] Strong uptake (arrows) of ALL*-Cy5.5 in tumor was captured on optical sections collected in the horizontal (1000×1000 μm^2, Video 1) FIG. 12C and vertical (1000×430 μm^2, Video 2) FIG. 12D planes, respectively. A series of vertical cross-section images were reconstructed into 3D MIP volume (Video 3), FIG. 12E.

GPC3 = biological target: T1, GPC3 (Homo sapiens, UniProt P51654); assay: siRNA knockdown of GPC3 in Hep3B cells, confocal fluorescence; assay type: cell-based
T1 construct: endogenous in cells; host or cells: Hep3B human HCC cells (siCL control vs siGPC3 knockdown); also HepG2; SK-Hep1 as GPC3-negative control
T1 sequence (P51654 25-554): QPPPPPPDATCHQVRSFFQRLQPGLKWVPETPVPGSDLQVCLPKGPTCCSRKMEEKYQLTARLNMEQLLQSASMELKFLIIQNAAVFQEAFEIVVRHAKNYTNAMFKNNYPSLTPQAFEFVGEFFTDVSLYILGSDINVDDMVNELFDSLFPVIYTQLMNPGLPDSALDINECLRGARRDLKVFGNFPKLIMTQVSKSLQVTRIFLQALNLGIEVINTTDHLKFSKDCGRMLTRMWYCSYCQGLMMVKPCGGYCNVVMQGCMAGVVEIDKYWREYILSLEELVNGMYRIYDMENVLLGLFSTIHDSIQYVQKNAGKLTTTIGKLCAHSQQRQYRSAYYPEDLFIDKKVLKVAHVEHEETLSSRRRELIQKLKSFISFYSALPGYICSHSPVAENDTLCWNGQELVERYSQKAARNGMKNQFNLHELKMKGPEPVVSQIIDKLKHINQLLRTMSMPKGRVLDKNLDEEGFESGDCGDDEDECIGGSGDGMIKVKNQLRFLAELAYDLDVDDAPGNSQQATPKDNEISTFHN
Protocol: as §1
The specificity of lead candidate peptide reagent binding was validated by siRNA knockdown of GPC3 in human HCC cells. The cells were transfected with siRNA to knockdown cell surface expression of GPC3. […] These cells were transfected with non-targeting siRNA (siCL) for use as control. […] FIG. 6-1D,E show ˜4-fold reduction in fluorescence intensity with both the peptide reagent and anti-GPC3 antibody, respectively, for Hep3B cells transfected with siRNA (siGPC3) to knock down GPC3 expression. […] FIG. 6-2M, N, O and P show the same result as original FIG. 6-1A, B, D and E.

[2] = 41 patients, log-transformed data

Sequence: ALLANHEELFQT (SEQ ID NO: 1) peptide labeled with Cy5.5 via a GGGSK linker on the C-terminus (ALLANHEELFQTGGGSK-{Cy5.5}) [ALL*-Cy5.5]
- signal in HCC relative to adenoma (human HCC; [2]): 2.48 fold
- signal in HCC relative to cirrhosis (human HCC; [2]): 2.05 fold
- signal in HCC relative to normal (human HCC; [2]): 3.43 fold
- immunofluorescence staining (human HCC; HCC tissue): Strong intense staining
- immunofluorescence staining (human HCC; adenoma tissue): Minimal staining
- immunofluorescence staining (human HCC; cirrhotic liver tissue): moderate diffuse staining
- immunofluorescence staining (human HCC; human normal liver tissue): negative staining
- intensity difference Hep3B vs SK-Hep1 relative to the same difference for QLE* (Hep3B human HCC cells; 6 replicates, log-transformed data): 8.2 fold
- fluorescence intensity from binding to cell surface (Hep3B human HCC cells; Hep3B cells, confocal microscopy): strong fluorescence intensity
- fluorescence intensity from binding to cell surface (SK-Hep1 cells): minimal signal
- fluorescent signal relative to QLE*-Cy5.5 ([1]; 2 hours after i.v. injection): 2.9 fold
- fluorescent intensity at tumor ([1]; 2 hours after i.v. injection, n=8): 47±13
- uptake/staining in tumor on optical sections ([1]; horizontal and vertical planes): Strong uptake
- siCL vs siGPC3 difference relative to the same difference for QLE (GPC3; ANOVA on log-transformed data): 7.4 times
- fluorescence intensity remaining (% of siCL control) (GPC3; GPC3 knockdown cells): 27%
- binding to cell surface (GPC3; Hep3B cells transfected with non-targeting siRNA (siCL)): strong binding
- reduction in fluorescence intensity (GPC3; Hep3B cells transfected with siGPC3 vs siCL): ~4 fold
- fluorescence intensity (GPC3; siCL treated Hep3B control cells): 54.3±6.0
- fluorescence intensity (GPC3; siGPC3 knockdown Hep3B cells): 14.7±1.5
